Results taken from patent publication US12492210B2, “Tricyclic compounds and their use” (HUTCHISON MEDIPHARMA LIMITED, priority 2019, dated 2025).

Assays:
[1] = target: T1, MAPK1(ERK2) enzyme (Homo sapiens, UniProt P28482); assay: Z-Lyte Kinase Assay of ERK2; type: biochemical; conditions: read-out: Example 18 IC50
T1 construct: purchased Invitrogen PV3313
Description: Example 18: Z-Lyte Kinase Assay of ERK2
1. Materials and Reagents:
2. Reaction Steps: Plate Map
3. Solution Preparation • 1) 1.33× Kinase Buffer: Dilute 5× Kinase Buffer to 1.33× with ddH2O • 2) 4× Test Compounds: Serially dilute the test compounds to 4 folds of the concentrations desired, keeping the DMSO concentration at 8%. The final concentrations are 1, 0.33, 0.11, 0.037, 0.012, 0.004, 0.0014, 0.00046 μM, and the final concentration of DMSO is 2%. • 3) Kinase/Peptide Mixture (P/K solution): Prepare Kinase/Peptide Mixture by diluting the kinase to 0.6 μg/ml and the Z-LYTE™ Ser/Thr3 peptide to 4 μM in 1.33× Kinase Buffer. Mix gently by pipetting. • 4) Phospho-peptide Solution (PP solution): Add 0.4 μl of Z-LYTE™ Ser/Thr3 Phospho-peptide to 99.6 μl of 1.33× Kinase Buffer. • 5) ATP Solution: Prepare ATP Solution by diluting the 10 mM of ATP in 1.33× Kinase Buffer to 100 μM. • 6) Development Solution: Dilute Development Reagent A with Development Buffer as 1:1024. 4. Reaction • 1) Kinase reaction (10 μl of Volume) • a. In a 384-well plate, add 2.5 μl of 4× test Cpds to each well except C1, C2, C3 wells Add 2.5 μl of 8% DMSO to C1, C2, C3 wells • b. Put the plate on ice • c. Add 5 μl of P/K mixture to each test Cpd wells and C1, C2 wells • d. Add 5 μl of PP Solution to C3 well • e. Add 2.5 μl of 1.33× kinase buffer to C1 and C3 wells • f. Add 2.5 μl of 4×ATP Solution to each test Cpd wells and C2 well, respectively. Shake the plate for 30 Sec and centrifuge (1500 rpm, 1 min) • g. Seal the plate to protect from the light and incubate the plate for 1 hour at RT (25-30° C.) • 2) Development reaction • a. Add 5 μl of the Development solution to all wells • b. Shake the plate for 30 sec and centrifuge (1500 rpm, 1 min) • c. Seal the plate to protect from the light and incubate the plate for 1 hour at RT (25-30° C.) • 3) Stop and read • a. Add 5 μl of the Stop reagent to all wells • b. Shake the plate for 30 sec and centrifuge (1500 rpm, 1 min) • c. Measure the value of coumarin (Ex400 nm, Em445 nm) and fluorescein (Ex400 nm, Em520 nm), respectively. 5. Data Analysis Emission Ratio(ER)=Coumarin Emission (445 nm)/Fluorescein Emission (520 nm) % Phosphorylation=1−[ER×C3520nm−C3445nm]/[(C1445nm−C3445nm)+ER×(C3520nm−C1520nm)] Inhibition rate (IR)=1−% Photest Cpd% PhoC2 6. IC50 Value: determine IC50 with add-in software for Microsoft Excel, XLfit™ (version 2.0) from ID Business Solutions (Guildford, UK)

[2] = tested on: p-RSK (Thr359) in colo205 cells; assay: p-RSK (Thr359) Acumen Assay in Colo205; type: cell-based; conditions: Homo sapiens, COLO 205, 1 hour compound incubation, read-out: Example 19 IC50
Description: Example 19: p-RSK (Thr359) Acumen Assay in Colo205
• Phospho-p90RSK (Thr359) (D1E9) Rabbit mAb: cell signal, #8753 • Alexa Fluor® 488 donkey anti-rabbit IgG: invitrogen, #A-21206 • Propidium Iodide: Sigma, #p4170 • 4% Paraformaldehyde: SCRC, #DF021 • 10% Triton X-100: PIERCE, #28314 • 96-well plate (black with clear bottom): BD, #354640 • Acumen® eX3 (A Multilaser Microplate Cytometer For Enhanced High Content Screening): TTP LabTech 3. Acumen Assay Protocol • Seed 4000 cells in 100 μl 10% FBS/well into 96-well plate, incubate at 37° C., 5% CO2, overnight. • Dilute the compound to 3, 1, 0.33, 0.11, 0.037, 0.012, 0.004, 0.001 μM, keeping the DMSO concentration at 5%. Add 10 μl of diluted compound per well and incubate at 37° C., 5% CO2 for 1 hour. • Add 100 μl of 4% pre-warmed Paraformaldehyde (2% final), and incubate for 45 min at room temperature. • Remove paraformaldehyde solutions. Add 100 μl of ice-cold 0.1% Triton to fixed cells at room temperature for 30 min. • Wash twice with 150 μl PBS and incubate with 100 μl blocking buffer (1% BSA, in PBS) for 2˜3 hours at room temperature, seal the plate. • Wash once with PBS and incubate with 35 μl p-RSK (Thr359) (1:1000 dilution) overnight at 4° C. Seal the plate. • Wash twice with PBS and incubate for 1.5 hours at room temperature with 35 μl of Alexa Fluor® 488 donkey anti-rabbit IgG at a 1:1,000 dilution in antibody dilution buffer (0.1% BSA, in PBS). Cover plate in foil to keep out of light. • Wash twice with 150 μl PBS. Add 35 μl of 1.5 μM Propidium Iodide stock to each well to determine cell number, seal the plate. • Incubate at room temperature for 30 min. Load the plate into the Acumen Explorer and scan with the appropriate instrument settings. 4. Data Analysis
[formula] Note: • Percentagecompound well represents the positive percentage of cells treated by compound. • Percentagemin well represents the positive percentage of cells treated with 3 uM GDC0994. • Percentagemax well represents the positive percentage of cells without compounds treatment. 5. IC50 Value: determine IC50 with add-in software for Microsoft Excel, XLfit™ (version 2.0) from ID Business Solutions (Guildford, UK)

T1 sequence (P28482 whole entry): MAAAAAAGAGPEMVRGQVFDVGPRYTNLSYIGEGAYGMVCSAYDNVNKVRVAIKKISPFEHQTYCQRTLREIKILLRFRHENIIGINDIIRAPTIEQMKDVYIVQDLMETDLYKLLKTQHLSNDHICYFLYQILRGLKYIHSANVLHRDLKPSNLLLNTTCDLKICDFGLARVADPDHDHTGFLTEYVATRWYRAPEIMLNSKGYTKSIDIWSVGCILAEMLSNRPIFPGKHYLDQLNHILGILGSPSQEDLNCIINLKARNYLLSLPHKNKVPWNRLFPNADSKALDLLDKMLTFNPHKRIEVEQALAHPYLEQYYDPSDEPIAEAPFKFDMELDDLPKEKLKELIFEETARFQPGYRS

IC50 [1] [nM]	IC50 [2] [nM]	Structure (SMILES)
≤ 5	> 100	Cn1nccc1Nc1cc(-c2cc3n(c2)CC2(COC2)n2c(CCC(F)(F)F)nnc2-3)c(Cl)cn1 [Compound 305]
≤ 5	> 100	Cn1nccc1Nc1cc(-c2cc3n(c2)CC(F)(F)Cn2c(Cn4cc(F)cc4C#N)nnc2-3)c(Cl)cn1 [Compound 219]
≤ 5	≤ 100	Cn1nccc1Nc1cc(-c2cc3n(c2)CC2(CC2)Cn2c(CCC(F)(F)F)nnc2-3)c(Cl)cn1 [Compound 254]
≤ 5	> 100	COC[C@H]1Cn2cc(-c3cc(Nc4ccnn4C)ncc3Cl)cc2-c2nnc(C(F)(F)C(F)F)n21 [Compound 301]
> 10	≤ 100	Cc1ncccc1C(F)(F)c1nnc2n1[C@@H](CF)Cn1cc(-c3cc(Nc4ccnn4C)ncc3Cl)cc1-2 [Compound 177]
≤ 5	≤ 100	Cc1cnc(Nc2ccnn2C)nc1-c1cc2n(c1)CCC(C)(C)n1c-2nnc1C1(C(F)(F)F)CC1 [Compound 251]
≤ 5	≤ 100	Cn1nccc1Nc1nccc(-c2cn3c(c2Cl)-c2nnc(Cc4ccccc4F)n2CCC3)n1 [Compound 245]
5 to 10	≤ 100	Cn1nccc1Nc1cc(-c2cc3n(c2)CCCn2c(Nc4ccccc4F)nnc2-3)c(Cl)cn1 [Compound 43]
≤ 5	≤ 100	Cc1cnc(Nc2ccnn2C)cc1-c1cc2n(c1)C[C@H](CF)n1c-2nnc1C(F)(F)c1ncccc1Cl [Compound 174]
> 10	> 100	Cc1cnc(Nc2ccnn2C(C)C)nc1-c1cc2n(c1)C[C@H](C)n1c-2nnc1C(F)(F)c1ccccc1F [Compound 292]
5 to 10	> 100	Cc1cnc(Nc2c(F)cnn2C)nc1-c1cc2n(c1)C[C@H](C)n1c-2nnc1C(F)(F)c1ccccc1F [Compound 290]
≤ 5	≤ 100	Cc1cnc(Nc2ccnn2C(F)F)cc1-c1cc2n(c1)CCCn1c-2nnc1C1(C(F)(F)F)CCC1 [Compound 263]
≤ 5	≤ 100	Cc1cnc(Nc2ccnn2C)nc1-c1cn2c(n1)-c1nnc(C(F)(F)c3ccccc3Cl)n1[C@@H](CF)C2 [Compound 225]
≤ 5	≤ 100	Cn1nccc1Nc1cc(-c2cc3n(c2)CC(F)(F)Cn2c-3nnc2C2(C#N)CCC2)c(Cl)cn1 [Compound 74]
≤ 5	> 100	Cn1nccc1Nc1nccc(-c2cc3n(c2)CCCn2c(COc4ccccc4)nnc2-3)n1 [Compound 36, N-(1-methyl-1H-pyrazol-5-yl)-4-(3-(phenoxymethyl)-6,7-dihydro-5H-pyrrolo[1,2-a][1,2,4]triazolo[3,4-c][1,4]diazepin-10-yl)pyrimidin-2-amine]
≤ 5	≤ 100	Cn1nccc1Nc1cc(-c2cc3n(c2)CC(C)(C)n2c(CCC(F)(F)F)nnc2-3)c(Cl)cn1 [Compound 247]
> 10	≤ 100	Cn1nccc1Nc1cc(-c2cc3n(c2)C(C(F)(F)F)Cn2c-3nnc2C(F)(F)C(F)F)c(Cl)cn1 (stereo not drawn) [Compound 270]
≤ 5	≤ 100	Cc1cnc(Nc2ccnn2C)nc1-c1cc2n(c1)CCCn1c-2nnc1C1(C(F)(F)F)CCCC1 [Compound 28]

IC50 [1] [nM]	IC50 [2] [nM]	Structure (SMILES)
> 10	> 100	Fc1ccccc1OCc1nnc2n1CCCn1cc(-c3cc(NC4CC4)ncc3C(F)(F)F)cc1-2 [Compound 252]
≤ 5	≤ 100	Cc1cnc(Nc2ccnn2C)nc1-c1cc2n(c1)C[C@H](C)n1c-2nnc1C(F)(F)n1cc(Cl)cn1 [Compound 102]
≤ 5	> 100	Cn1nccc1Nc1nccc(-c2cn3c(c2F)-c2nnc(C4(C(F)(F)F)CCC4)n2CCC3)n1 [Compound 243]
≤ 5	≤ 100	Cn1nccc1Nc1cc(-c2cc3n(c2)C[C@H](CF)n2c-3nnc2C(F)(F)C(F)F)c(Cl)cn1 [Compound 79]
5 to 10	≤ 100	Cc1nonc1C(F)(F)c1nnc2n1[C@@H](CF)Cn1cc(-c3cc(Nc4ccnn4C)ncc3Cl)cc1-2 [Compound 158]
> 10	≤ 100	Cc1cnc(Nc2ccnn2CCCO)nc1-c1cc2n(c1)C[C@H](C)n1c-2nnc1C(F)(F)c1ccccc1F [Compound 297]
≤ 5	> 100	Cn1nccc1Nc1cc(-c2cc3n(c2)CC(F)(F)Cn2c(COC(F)(F)F)nnc2-3)c(Cl)cn1 [Compound 107]
≤ 5	≤ 100	Cc1cnc(Nc2ccnn2C)cc1-c1cc2n(c1)CC(F)(F)Cn1c-2nnc1C1(C(F)(F)F)CCC1 [Compound 117]
> 10	≤ 100	Cn1nccc1Nc1cc(-c2cc3n(c2)C[C@H](CF)n2c-3nnc2C(F)(F)c2ccccc2F)c(Cl)cn1 [Compound 190]
≤ 5	≤ 100	Cn1nccc1Nc1cc(-c2cc3n(c2)CCn2c-3nnc2C2(C(F)(F)F)CCC2)c(Cl)cn1 [Compound 20]
5 to 10	≤ 100	Cn1nccc1Nc1cc(-c2cc3n(c2)CC2(CC2)n2c-3nnc2C(F)(F)C(F)F)c(F)cn1 [Compound 235]
≤ 5	≤ 100	C[C@H]1Cn2cc(-c3cc(Nc4ccnn4C)ncc3Cl)cc2-c2nnc(C3(C(F)(F)F)CCC3)n21 [Compound 256]
≤ 5	≤ 100	Cn1nccc1Nc1cc(-c2cc3n(c2)CCn2c(Cc4ccccc4F)nnc2-3)c(Cl)cn1 [Compound 9]
≤ 5	≤ 100	Cc1cnc(Nc2ccnn2C)cc1-c1cc2n(c1)C[C@H](CF)n1c-2nnc1C(F)(F)c1sccc1Cl [Compound 195]
≤ 5	≤ 100	Cn1nccc1Nc1cc(-c2cc3n(c2)C[C@@H](O)Cn2c-3nnc2C2(C(F)(F)F)CCC2)c(Cl)cn1 [Compound 216]
5 to 10	> 100	Cc1cnc(NC2CCc3ncnn3C2)nc1-c1cc2n(c1)C[C@H](C)n1c-2nnc1C(F)(F)c1ccccc1F (stereo partly drawn) [Compound 280]
≤ 5	≤ 100	CO[C@@H]1Cn2cc(-c3cc(Nc4ccnn4C)ncc3Cl)cc2-c2nnc(C3(C(F)(F)F)CCC3)n2C1 [Compound 302]
≤ 5	≤ 100	Cc1cnc(Nc2ccnn2C)cc1-c1cc2n(c1)C[C@H](CF)n1c-2nnc1C(F)(F)c1ncccc1F [Compound 133]
